Read-outs that look alike come from different tables or passages of the source.
Key:
A549 cells [1] = experiment: Cell death mechanism by Annexin V-DY634/7-AAD flow cytometry with or without Z-VAD-fmk; type: cell-based, human; conditions: 24 and 48 h, 30 μM Z‐VAD‐fmk
Description: For flow cytometry analysis, phosphatidylserine exposure on cell surface as an “early apoptosis” marker and cell membrane damage as necrosis indicator were evaluated with Annexin V‐DY634 (apoptosis) and the DNA‐labelling dye 7‐AAD (necrosis) staining. […] As shown in Figures 4 and S22 (top graphs), cells are distributed in three populations. Annexin V‐DY634‐only positive cells are indicative of an early apoptotic process, a 7‐AAD‐only labelled cell population represents exploded cells as a typical endpoint of necrotic cell death, and the doubly stained population implies that cells started being apoptotic and then eventually burst, a phenomenon known as “late apoptosis”. It is remarkable that late apoptosis state was easily reached at higher concentrations for both complexes. […] As both compounds activate apoptotic pathway, we wanted to unveil whether caspases were implicated in the cell death process by using the pan‐caspase inhibitor Z‐VAD‐fmk.
Cytotoxicity assays: Apoptotic and necrotic cell death was determined by measuring phosphatidylserine exposure on cell surface and cell membrane permeabilisation, respectively, in A549 cells. […] Cell death was analysed using CellQuest Pro (BD Biosciences), FlowJo 7.6.1 (Becton Dickinson (BD), USA) and GraphPad Prism 5 (GraphPad Software, USA) software.

ucb‐ECFCs [2] = experiment: Annexin V-FITC/PI apoptosis determination in ucb-ECFCs; type: cell-based, human; conditions: 4 μM, 3 h
Description: (§1) An apoptosis determination test was performed under acute conditions, that is, incubation for a short period of time (3 h) and high concentration of complexes (4 μM; Table 4). A different response was observed regarding the origin of the ECFCs. While the cytotoxic effect on ucb‐ECFCs was similar for all complexes (ca. 20 %), mortality levels of 50 % were achieved on apb‐ECFCs with complexes 1 and 4. On the contrary, complex 2 appeared to be no toxic under these conditions.
(§2) For apoptosis assessment on ECFCs cells exposed to 1, 2 and 4 complexes, an Annexin V apoptosis detection kit (Immunostep), with FITC‐conjugated Annexin V and propidium iodide (PI), was used. Cells were incubated during 3 h with 1, 2 and 4 at 4 μM, gently detached from cell culture surface with Accutase (Corning) and resuspended in D‐PBS, and stained with FITC‐conjugated annexin V and PI according to manufacturer instructions. Data were acquired using a Gallios Flow Cytometer (Beckman Coulter), and Kaluza v2.1 (Beckman Coulter) software was used for data analysis.

apb‐ECFCs [3] = experiment: Crystal violet cell viability assay in apb-ECFCs; type: cell-based, human; conditions: 24 h
Description: (§3) Effects on the cell viability related to compounds 1, 2 and 4 were analysed by crystal violet assays in ucb‐ECFCs and apb‐ECFCs. Both kinds of cells show a dose‐dependent sensitivity to the complexes after 24 h of treatment (Figure S30). IC50 values were on the range 1.1‐3.6 μM, ucb‐ECFCs being more sensitive than apb‐ECFCs to the compounds (Table 3), which could be associated to the increased proliferative activity of the ucb‐ECFCs.
(§4) Endothelial colony forming cells (ECFC) were isolated from umbilical cord blood from healthy births but unsuitable for transplantation (ucb‐ECFCs), or from peripheral blood of adult healthy donors (apb‐ECFCs) following the method described by Ingram et al.[57] with minor modifications. […]
(§5) For ECFCs cell viability determination, crystal violet assays were performed. […] Estimation of cell density was achieved by solubilisation of cell‐retained crystal violet with 10 % acetic acid solution and absorbance measurement at 540 nm in a Synergy HD system (BioTek). Data were analysed with SAIC50 v1.5.10 (http://gauss.inf.um.es:8080/IC50/) using the four‐parameter logistic function to calculate IC50 values according to Sebaugh et al.[58]

ucb‐ECFCs [4] = experiment: Crystal violet cell viability assay in ucb-ECFCs; type: cell-based, human; conditions: 24 h
Description: as §3, §4, §5

A549 cells [5] = experiment: ROS production measurement (CellROX, flow cytometry); type: cell-based, human; conditions: 24 h, up to 80 % of IC50
Description: The generation of ROS was analysed by flow cytometry using a fluorogenic CellROX^TM assay kit. Complexes 1 and 4 were selected for the experiment to discriminate between the effects that might drive the presence of the gold fragment. […] Such increment might be in fact associated with the presence of the gold fragment as many reported gold species have shown to induce oxidative stress.[43] Therefore, this experiment seems to indicate that the introduction of the gold fragment activates to a higher extent the mechanisms of ROS generation in A549 cells.
ROS production measurement: 5×10^5 A549 cells/well were seeded in complete medium in flat‐bottom, 6‐well plates (3 mL/well) and allowed to attach for 24 h prior to addition of the compound. Complexes 1 and 4 were dissolved in DMSO and added to cells up to concentration of 80 % (IC50) in duplicate. Cells were incubated with the complexes for 24 h and subsequently, they were trypsinised and the CellROX®Green Flow cytometry assay kit (C10492) was used to evaluate the generation of ROS in a Gallios Flow Cytometer (Beckman Coulter) using Kaluza v2.1 software for data analysis.

ECFCs = experiment: In vitro tube formation (angiogenic activity) assay; type: cell-based, human; conditions: 0.25 μM, 20 h, ucb- and apb-ECFCs
Description: In vitro tube formation assay is a highly informative test to probe angiogenic ability of endothelial cells.[55] This observation could be the basis to consider their potential antiangiogenic activity and develop complementary assays in more physiologically relevant models. […] The mechanisms involved in this effect deserve further research.
Tube formation assay: Endothelial cells (10 000 cell/well) suspended in cell culture medium containing each compound at 0.25 μM or vehicle (DMSO) were seeded over Cultrex® Reduced Growth Factor Basement Membrane Matrix (Trevigen) gelled (37 °C for 30 min) in wells of μ‐Slide Angiogenesis coverslips (ibidi). DMSO concentration in the medium was below 0.5 %. Cells were then incubated for a 20 h period with the treatments. Images were acquired with a Moticam 3 digital camera system (Motic) through a CK40 inverted microscope (Olympus) using a 10x objective.

A549 cells [6] = experiment: Mitochondrial transmembrane potential analysis (TMRE, flow cytometry); type: cell-based, human; conditions: 48 h
Excerpt: TMRE is a positively charged dye that accumulates in cells with active mitochondria as consequence of their net internal negative charge but several cell insults, including chemotherapeutic agents, lead to mitochondrial depolarisation and thus TMRE incorporation fails. A shift is seen in the pattern staining for complexes 1 (Figure S29) and 4 (Figure 13) in comparison with untreated cells and this overlaps with that seen when treating cells with S63845 (positive control), a selective inhibitor of the Mcl‐1 antiapoptotic protein involved in the regulation of the mitochondrial apoptotic pathway.
Mitochondrial transmembrane potential analysis: Integrity of the mitochondrial outer membrane was evaluated by measuring disruption of mitochondrial transmembrane potential. For this assay, 10^5 A549 cells/mL were seeded in complete medium in flat‐bottom, 12‐well plates (1 mL/well) and allowed to attach for 24 h prior to addition of compounds. Cells were treated for 48 h with compound 4 at 150 μM in duplicate. Then, they were trypsinised, resuspended in 500 μl of a mixture of complete medium and 60 nM of the tetramethilrhodamine ethyl ester (TMRE) probe and incubated at 37 °C in the dark for 20 min. Finally, a total of 10 000 cells were acquired on a FACSCalibur flow cytometer (BD Biosciences) and data were analysed using the aforementioned software.

apb‐ECFCs [7] = experiment: Annexin V-FITC/PI apoptosis determination in apb-ECFCs; type: cell-based, human; conditions: 4 μM, 3 h; for Early apoptotic / Late apoptotic / Necrotic / Viable: apb ECFCs; for Mortality level: apb‐ECFCs
Description: as §1, §2

[8] = system: A549 lung carcinoma cells; experiment: MTT-reduction cell viability assay in A549 cells; type: cell-based, human; conditions: 24 h incubation
Description: In vitro bioactivity of complexes 1 to 4 as well as their dimer precursor was determined by MTT‐reduction assays in A549 lung carcinoma cells (Table 2). […] Cells show an increased sensitivity to the heterobimetallic species bearing a phosphine or a thiocytosine group as gold ancillary ligand, complexes 2 and 4 respectively. The higher balance of the lipo‐ vs hydrophilicity of triphenylphosphine[35] of complex 2, or the bio‐friendly nature of the thiocytosine ancillary ligand[36, 37] in the case of complex 4 might promote an increase of the cell permeabilisation and thus display a greater antiproliferative activity.
Cell culture: A549 (human lung carcinoma) cell line (from ATCC, USA) was routinely cultured in high glucose DMEM medium supplemented with 5 % foetal bovine serum (FBS), L‐glutamine and penicillin/streptomycin (hereafter, complete medium).
Cell viability assays : The MTT‐reduction assay was used to analyse cell metabolic activity as an indicator for cell sensitivity to the complexes in A549 cell line. 10^5 cells/mL were seeded in complete medium in flat‐bottom, 96‐well plates (100 μL/well) and allowed to attach for 24 h prior to addition of compounds. The complexes were dissolved in DMSO and added to cells in concentrations ranging from 0.5 to 50 μM in quadruplicate. Cells were incubated with our compounds for 24 h and then 10 μL of MTT (5 mg mL^−1 in PBS) were added to each well and plates were incubated for 2 h at 37 °C. Finally, culture medium was removed and DMSO (100 μL/well) was added to dissolve the formazan crystals. The optical density was measured at 550 nm using a 96‐well multiscanner autoreader (ELISA) and IC50 was calculated. Each compound was analysed at least in three independent experiments.

[9] = system: A549 lung carcinoma cells; conditions: cited from earlier work

F[P-](F)(F)(F)(F)F.c1ccc([P+]2(c3ccccc3)C[P+](c3ccccc3)(c3ccccc3)[Ir-3]234([c]2ccccc2-c2cccc[n+]23)[c]2ccccc2-c2cccc[n+]24)cc1 [Complex 1, [Ir(ppy)2(dppm)]PF6]
Cell death mechanism (effect of pan-caspase inhibitor Z-VAD-fmk) (A549 cells [1]): caspase‐independent cell death mechanism | Early apoptotic (ucb‐ECFCs [2]): 1.12% | Late apoptotic (ucb‐ECFCs [2]): 21.81% | Necrotic (ucb‐ECFCs [2]): 3.96% | Viable (ucb‐ECFCs [2]): 73.10% | IC50 (apb‐ECFCs [3]): 2710 nM | IC50 (ucb‐ECFCs [4]): 1160 nM | ROS generation (A549 cells [5]): dose‐dependent increase in the generation of ROS | Tube formation activity of ECFCs on Cultrex matrix (ECFCs): reduced although not completely impaired | Disruption of mitochondrial transmembrane potential (TMRE staining) (A549 cells [6]): complete disruption of mitochondrial transmembrane potential | Early apoptotic (apb‐ECFCs [7]): 8.30% | Late apoptotic (apb‐ECFCs [7]): 51.93% | Necrotic (apb‐ECFCs [7]): 9.02% | Viable (apb‐ECFCs [7]): 30.75% | Mortality level (apb‐ECFCs [7]): 50% | IC50 [8]: 1000 ± 80 nM

F[P-](F)(F)(F)(F)F.c1ccc([P+]([Au-][CH]2[P+](c3ccccc3)(c3ccccc3)[Ir-3]34([c]5ccccc5-c5cccc[n+]53)([c]3ccccc3-c3cccc[n+]34)[P+]2(c2ccccc2)c2ccccc2)(c2ccccc2)c2ccccc2)cc1 [Complex 2]
Early apoptotic (ucb‐ECFCs [2]): 0.93% | Late apoptotic (ucb‐ECFCs [2]): 17.24% | Necrotic (ucb‐ECFCs [2]): 5.01% | Viable (ucb‐ECFCs [2]): 76.82% | IC50 (apb‐ECFCs [3]): 3520 nM | IC50 (ucb‐ECFCs [4]): 2630 nM | Tube formation activity of ECFCs on Cultrex matrix (ECFCs): reduced although not completely impaired | Early apoptotic (apb‐ECFCs [7]): 9.22% | Late apoptotic (apb‐ECFCs [7]): 8.40% | Necrotic (apb‐ECFCs [7]): 0.14% | Viable (apb‐ECFCs [7]): 82.25% | Mortality level (apb‐ECFCs [7]): no toxic | IC50 [8]: 800 ± 60 nM

[Cl][AuH][CH]1[P+](c2ccccc2)(c2ccccc2)[Ir-3]23([c]4ccccc4-c4cccc[n+]42)([c]2ccccc2-c2cccc[n+]23)[P+]1(c1ccccc1)c1ccccc1 [Complex 3]
IC50 [8]: 1700 ± 80 nM

N.N.[Cl][Pt][Cl] [cisplatin, reference compound]
IC50 [9]: 20800 ± 2100 nM

c1cc[c]2c(c1)-c1cccc[n+]1[Ir-3]213([Cl+][Ir-3]24([Cl+]1)([c]1ccccc1-c1cccc[n+]12)[c]1ccccc1-c1cccc[n+]14)[c]1ccccc1-c1cccc[n+]13 [dimer, [Ir(ppy)2(μ‐Cl)]2]
IC50 [8]: > 50000 nM

From PMC8361937, “Multifunctional Heterometallic Ir^III−Au^I Probes as Promising Anticancer and Antiangiogenic Agents” (Chemistry (Weinheim an Der Bergstrasse, Germany), 2021)
